Experimental data taken from publication PMC4646457 (PLoS ONE, 2015).

Experiments:
HER2 phosphorylation = tested on: HER2 phosphorylation; set-up: method as in printed; settings: abstract, ref not given, cited from earlier work
efflux transporter ABCB1 = settings: read-out: IC50 for inhibition of the efflux transporter ABCB1; cited from earlier work
[1] = set-up: method as in EGF10027 protocol, CIB RM2000/00481/06; settings: oral, male beagle dogs; ref EGF10027 protocol, CIB RM2000/00481/06; cited from earlier work
in vivo = settings: female, CB-17 SCID, mouse; for MRT last: MRTlast
plasma proteins = tested on: plasma proteins; set-up: method as in EGF10027 protocol, CIB RM2000/00481/06; settings: mouse, rat, dog, rabbit and human plasma, 1 to 100 µM; ref EGF10027 protocol, CIB RM2000/00481/06; cited from earlier work
ErbB1 tyrosine kinase = settings: read-out: IC50, ErbB1 tyrosine kinase; in vitro kinase assay; ref EGF10027 protocol, CIB RM2000/00481/06; cited from earlier work
HER3 = assay: Quantitative IHC of phosphorylated HER3 in patient tumor (EGF10027); type: in vivo, human; settings: for p-HER3 post-treatment OD: plasma […]
[2] = BT474 tumor, po, 100 mg/kg, 100 mg/kg BID, multiple doses
[3] = BT474 tumor, po, 100 mg/kg, single dose
[4] = BT474 tumor, po, 200 mg/kg, 200 mg/kg QD, multiple doses
[5] = BT474 tumor, po, 200 mg/kg, single dose
[6] = blood, oral, 100 mg/kg, individual animals 1-3, blood, 100 mg/kg BID
[7] = blood, po, 100 mg/kg, 100 mg/kg BID, multiple doses
[8] = blood, po, 100 mg/kg, single dose
[9] = blood, po, 200 mg/kg, 200 mg/kg QD, multiple doses
[10] = blood, po, 200 mg/kg, single dose
[11] = kidney, oral, 100 mg/kg, single dose
[12] = kidney, oral, 100 mg/kg, individual animals 1-3, kidney, 100 mg/kg BID
[13] = kidney, oral, 200 mg/kg, single dose
[14] = kidney, oral, 200 mg/kg, individual animals 1-3, kidney, 200 mg/kg QD
[15] = kidney, po, 100 mg/kg, 100 mg/kg BID, multiple doses
[16] = kidney, po, 200 mg/kg, 200 mg/kg QD, multiple doses
[17] = liver, oral, 100 mg/kg, single dose
[18] = liver, oral, 100 mg/kg, individual animals 1-3, liver, 100 mg/kg BID
[19] = liver, oral, 200 mg/kg, single dose
[20] = liver, oral, 200 mg/kg, individual animals 1-3, liver, 200 mg/kg QD
[21] = liver, po, 100 mg/kg, 100 mg/kg BID, multiple doses
[22] = liver, po, 200 mg/kg, 200 mg/kg QD, multiple doses
[23] = tumor, oral, 100 mg/kg, individual animals 1-3, tumor, 100 mg/kg BID
[24] = tumor, oral, 200 mg/kg, individual animals 1-3, tumor, 200 mg/kg QD

CS(=O)(=O)CCNCc1ccc(-c2ccc3ncnc(Nc4ccc(OCc5cccc(F)c5)c(Cl)c4)c3c2)o1 [lapatinib]
in vitro IC90 for inhibition of HER2 phosphorylation (HER2 phosphorylation): ~0.5 µg/mL | IC90 (HER2 phosphorylation; read-out: in vitro IC90 for inhibition of HER2 phosphorylation): ~900 nM | IC50 (efflux transporter ABCB1): 4000 nM | overall recovery of radioactivity (nearly quantitative in feces) [1]: 89.9% | concentration at 96 h (in vivo; BT474 tumor, oral, 200 mg/kg, individual animals 1-3, tumor, 200 mg/kg QD): 915 ng/mL | AUC(0-t) (in vivo; BT474 tumor, po, 100 mg/kg, AUClast, 100 mg/kg BID, multiple doses): 1120 µg·h/mL | AUC(0-t) (in vivo; BT474 tumor, po, 100 mg/kg, AUClast, single dose): 313 µg·h/mL | Cmax (in vivo; [2]): 55800 ng/mL | Cmax (in vivo; [3]): 24900 ng/mL | MRT last (in vivo; [2]): 20.5 h | MRT last (in vivo; [3]): 12.6 h | Tmax (in vivo; [2]): 4 h | Tmax (in vivo; [3]): 12 h | AUC(0-t) (in vivo; BT474 tumor, po, 200 mg/kg, AUClast, 200 mg/kg QD, multiple doses): 1320 µg·h/mL | AUC(0-t) (in vivo; BT474 tumor, po, 200 mg/kg, AUClast, single dose): 579 µg·h/mL | Cmax (in vivo; [4]): 79200 ng/mL | Cmax (in vivo; [5]): 44000 ng/mL | MRT last (in vivo; [4]): 18.7 h | MRT last (in vivo; [5]): 17.5 h | Tmax (in vivo; [4]): 10 h | Tmax (in vivo; [5]): 1 h | half-life (in vivo; blood, liver, kidney, tumor, oral, 100 mg/kg): 4 h | concentration at 10 h (in vivo; [6]): 3080 ng/mL | concentration at 24 h (in vivo; [6]): 95.2 ng/mL | concentration at 24 h (in vivo; blood, oral, 200 mg/kg, individual animals 1-3, blood, 200 mg/kg QD): 28 ng/mL | AUC(0-t) (in vivo; blood, po, 100 mg/kg, AUClast, 100 mg/kg BID, multiple doses): 102 µg·h/mL | AUC(0-t) (in vivo; blood, po, 100 mg/kg, AUClast, single dose): 46.7 µg·h/mL | Cmax (in vivo; [7]): 9350 ng/mL | Cmax (in vivo; [8]): 7040 ng/mL | MRT last (in vivo; [7]): 6.9 h | MRT last (in vivo; [8]): 6.3 h | Tmax (in vivo; [7]): 1 h | Tmax (in vivo; [8]): 1 h | AUC(0-t) (in vivo; blood, po, 200 mg/kg, AUClast, 200 mg/kg QD, multiple doses): 152 µg·h/mL | AUC(0-t) (in vivo; blood, po, 200 mg/kg, AUClast, single dose): 88.2 µg·h/mL | Cmax (in vivo; [9]): 16100 ng/mL | Cmax (in vivo; [10]): 8220 ng/mL | MRT last (in vivo; [9]): 7.3 h | MRT last (in vivo; [10]): 8.5 h | Tmax (in vivo; [9]): 10 h | Tmax (in vivo; [10]): 12 h | AUC(0-t) (in vivo; kidney, oral, 100 mg/kg, AUClast, single dose): 267 µg·h/mL | Cmax (in vivo; [11]): 29800 ng/mL | concentration at 1 h (in vivo; [12]): 57200 ng/mL | concentration at 4 h (in vivo; [12]): 72300 ng/mL | concentration at 48 h (in vivo; [12]): 114 ng/mL | concentration at 72 h (in vivo; [12]): 94.5 ng/mL | concentration at 96 h (in vivo; [12]): 47.9 ng/mL | MRT last (in vivo; [11]): 7.7 h | Tmax (in vivo; [11]): 1 h | AUC(0-t) (in vivo; kidney, oral, 200 mg/kg, AUClast, single dose): 633 µg·h/mL | Cmax (in vivo; [13]): 64900 ng/mL | concentration at 1 h (in vivo; [14]): 48300 ng/mL | concentration at 24 h (in vivo; [14]): 144 ng/mL | concentration at 72 h (in vivo; [14]): 77.3 ng/mL | concentration at 96 h (in vivo; [14]): 49.9 ng/mL | MRT last (in vivo; [13]): 9 h | Tmax (in vivo; [13]): 12 h | AUC(0-t) (in vivo; kidney, po, 100 mg/kg, AUClast, 100 mg/kg BID, multiple doses): 1170 µg·h/mL | Cmax (in vivo; [15]): 98500 ng/mL | MRT last (in vivo; [15]): 8.4 h | Tmax (in vivo; [15]): 10 h | AUC(0-t) (in vivo; kidney, po, 200 mg/kg, AUClast, 200 mg/kg QD, multiple doses): 1320 µg·h/mL | Cmax (in vivo; [16]): 136000 ng/mL | MRT last (in vivo; [16]): 8 h | Tmax (in vivo; [16]): 10 h | AUC(0-t) (in vivo; liver, oral, 100 mg/kg, AUClast, single dose): 414 µg·h/mL | Cmax (in vivo; [17]): 46700 ng/mL | concentration at 1 h (in vivo; [18]): 107000 ng/mL | concentration at 4 h (in vivo; [18]): 90700 ng/mL | concentration at 48 h (in vivo; [18]): 193 ng/mL | concentration at 72 h (in vivo; [18]): 121 ng/mL | concentration at 96 h (in vivo; [18]): 66.9 ng/mL | MRT last (in vivo; [17]): 7.5 h | Tmax (in vivo; [17]): 1 h | AUC(0-t) (in vivo; liver, oral, 200 mg/kg, AUClast, single dose): 1050 µg·h/mL | Cmax (in vivo; [19]): 110000 ng/mL | concentration at 1 h (in vivo; [20]): 137000 ng/mL | concentration at 4 h (in vivo; [20]): 223000 ng/mL | concentration at 48 h (in vivo; [20]): 173 ng/mL | concentration at 72 h (in vivo; [20]): 101 ng/mL | concentration at 96 h (in vivo; [20]): 98.3 ng/mL | MRT last (in vivo; [19]): 9.4 h | Tmax (in vivo; [19]): 12 h | AUC(0-t) (in vivo; liver, po, 100 mg/kg, AUClast, 100 mg/kg BID, multiple doses): 1380 µg·h/mL | Cmax (in vivo; [21]): 119000 ng/mL | MRT last (in vivo; [21]): 8 h | Tmax (in vivo; [21]): 10 h | AUC(0-t) (in vivo; liver, po, 200 mg/kg, AUClast, 200 mg/kg QD, multiple doses): 2110 µg·h/mL | Cmax (in vivo; [22]): 240000 ng/mL | MRT last (in vivo; [22]): 8.4 h | Tmax (in vivo; [22]): 10 h | half-life (in vivo; tumor, oral): 15.6 h | concentration at 4 h (in vivo; [23]): 51400 ng/mL | concentration at 10 h (in vivo; [23]): 59200 ng/mL | concentration at 4 h (in vivo; [24]): 47400 ng/mL | concentration at 10 h (in vivo; [24]): 71800 ng/mL | AUC(0-t) (in vivo; tumor, po, 100 mg/kg, AUC 0–12, tumor, median (range), n = 3, after fifth dose of 100 mg/kg BID): 396 µM·h | AUC(0-t) (in vivo; tumor, po, 200 mg/kg, AUC 0–24, tumor, median (range), n = 3, after third dose of 200 mg/kg QD): 1950 µM·h | half-life (in vivo; whole blood, oral): 3.9 h | AUC(0-t) (in vivo; whole blood, po, 100 mg/kg, AUC 0–12, blood, median (range), n = 3, after fifth dose of 100 mg/kg BID): 104 µM·h | AUC(0-t) (in vivo; whole blood, po, 200 mg/kg, AUC 0–24, blood, median (range), n = 3, after third dose of 200 mg/kg QD): 739 µM·h | plasma protein binding (plasma proteins): > 99% | IC50 (ErbB1 tyrosine kinase): 10 nM | p-HER3 post-treatment OD, mean (HER3; mean of listed subjects): 10.40 OD | HER3 phosphorylation in tumor (HER3; one patient with ABCB1 SNP C3435T, plasma 1 μM, tumor 9 μM): complete inhibition | p-HER3 post-treatment OD (HER3; subject 5, tumor 25.60 µM): 16 OD | p-HER3 post-treatment OD (HER3; subject 124, tumor 56.02 µM): 7 OD | p-HER3 post-treatment OD (HER3; subject 801, tumor 1.98 µM): 14 OD | p-HER3 post-treatment OD (HER3; subject 803, tumor 2.08 µM): 5 OD | p-HER3 post-treatment OD (HER3; subject 804, tumor 7.90 µM): 11 OD | p-HER3 post-treatment OD (HER3; subject 1401, tumor 1.02 µM): 3 OD | p-HER3 post-treatment OD (HER3; subject 1405, tumor 12.76 µM): 18 OD
